Assay results reported in patent US11400058B2, “Intravenous formulations of coenzyme Q10 (CoQ10) and methods of use thereof” (Berg LLC, priority 2010, dated 2022).
Marks after values point to notes of the source that are not given here.

Assay: 4-week repeat-dose toxicology study in rats with 2-week recovery (Study 20000328)
Details: for Died or Sacrificed Moribund: animals of 15
[1] = 62.5 mg/kg F, end of dosing, animals of 10
[2] = 62.5 mg/kg F, end of recovery, animals of 5
[3] = 62.5 mg/kg M, end of dosing, animals of 10

COC1=C(OC)C(=O)C(C/C=C(\C)CC/C=C(\C)CC/C=C(\C)CC/C=C(\C)CC/C=C(\C)CC/C=C(\C)CC/C=C(\C)CC/C=C(\C)CC/C=C(\C)CCC=C(C)C)=C(C)C1=O [CoQ10, Coenzyme Q10]
Died or Sacrificed Moribund (62.5 mg/kg F): 0 | ALT (62.5 mg/kg F, end of dosing): 19 IU/L | APPT (62.5 mg/kg F, end of dosing): 15.1 s | AST (62.5 mg/kg F, end of dosing): 67* IU/L | Body Weight, percent difference from controls (62.5 mg/kg F, end of dosing): −1.7% | Eosinophils (62.5 mg/kg F, end of dosing): 0.09 10^3/cmm | Erythrocytes (62.5 mg/kg F, end of dosing): 7.77* 10^6/cmm | Food Consumption, percent difference from controls (62.5 mg/kg F, end of dosing): −4.0% | GGT (62.5 mg/kg F, end of dosing): 0.42 IU/L | Hematocrit (62.5 mg/kg F, end of dosing): 42.4* % | Hemoglobin (62.5 mg/kg F, end of dosing): 14.7* g/dL | Leukocytes (62.5 mg/kg F, end of dosing): 8.33 10^3/cmm | Liver weight (absolute), percent difference from controls (62.5 mg/kg F, end of dosing): −6.1% | Lymphocytes (62.5 mg/kg F, end of dosing): 6.79 10^3/cmm | Neutrophils (62.5 mg/kg F, end of dosing): 1.06 10^3/cmm | Spleen weight (absolute), percent difference from controls (62.5 mg/kg F, end of dosing): −48.2* % | Bone Marrow, Sternum Hyperplasia [1]: 0 | Bone Marrow, Sternum Hyperplasia, Mild [1]: 0 | Bone Marrow, Sternum Hyperplasia, Minimal [1]: 0 | Gross Pathology: Enlarged Pancreatic Lymph Nodes [1]: 0 | Gross Pathology: Pale Adrenal [1]: 0 | Gross Pathology: Pale Liver [1]: 7 | Gross Pathology: Pale Lymph Nodes [1]: 1 | Gross Pathology: Pale Ovaries [1]: 0 | Gross Pathology: Pale Pituitary [1]: 0 | Gross Pathology: Pale SQ Skin [1]: 0 | Liver Focal Necrosis [1]: 1 | Liver Focal Necrosis, Minimal [1]: 1 | Liver Histiocytic Infiltration [1]: 7 | Liver Histiocytic Infiltration, Mild [1]: 0 | Liver Histiocytic Infiltration, Minimal [1]: 7 | Liver Histiocytic Infiltration, Moderate [1]: 0 | Liver Vacuolation [1]: 7 | Liver Vacuolation, Mild [1]: 0 | Liver Vacuolation, Minimal [1]: 7 | Lymph Node, Man. Histiocytic Infiltration [1]: 4 | Lymph Node, Man. Histiocytic Infiltration, Mild [1]: 0 | Lymph Node, Man. Histiocytic Infiltration, Minimal [1]: 4 | Lymph Node, Man. Histiocytic Infiltration, Moderate [1]: 0 | Lymph Node, Mes. Histiocytic Infiltration [1]: 9 | Lymph Node, Mes. Histiocytic Infiltration, Mild [1]: 2 | Lymph Node, Mes. Histiocytic Infiltration, Minimal [1]: 7 | Lymph Node, Mes. Histiocytic Infiltration, Moderate [1]: 0 | Ovary Histiocytic Infiltration [1]: 0 | Ovary Histiocytic Infiltration, Mild [1]: 0 | Ovary Histiocytic Infiltration, Minimal [1]: 0 | Ovary Histiocytic Infiltration, Moderate [1]: 0 | Skin, Dermis Histiocytic Infiltration [1]: 0 | Skin, Dermis Histiocytic Infiltration, Marked [1]: 0 | Skin, Dermis Histiocytic Infiltration, Mild [1]: 0 | Skin, Dermis Histiocytic Infiltration, Moderate [1]: 0 | Skin, SQ Histiocytic Infiltration [1]: 0 | Skin, SQ Histiocytic Infiltration, Mild [1]: 0 | Spleen Histiocytic Infiltration [1]: 4 | Spleen Histiocytic Infiltration, Marked [1]: 0 | Spleen Histiocytic Infiltration, Mild [1]: 4 | Spleen Histiocytic Infiltration, Moderate [1]: 0 | ALT (62.5 mg/kg F, end of recovery): 19 IU/L | APPT (62.5 mg/kg F, end of recovery): 14.4 s | AST (62.5 mg/kg F, end of recovery): 83 IU/L | Body Weight, percent difference from controls (62.5 mg/kg F, end of recovery): −0.9% | Food Consumption, percent difference from controls (62.5 mg/kg F, end of recovery): −7.9% | GGT (62.5 mg/kg F, end of recovery): 0.12 IU/L | Liver weight (absolute), percent difference from controls (62.5 mg/kg F, end of recovery): +4.6% | Spleen weight (absolute), percent difference from controls (62.5 mg/kg F, end of recovery): +0.5% | Adrenal Gland Vacuolation [2]: 3 | Adrenal Gland Vacuolation, Marked [2]: 0 | Adrenal Gland Vacuolation, Mild [2]: 0 | Adrenal Gland Vacuolation, Minimal [2]: 3 | Adrenal Gland Vacuolation, Moderate [2]: 0 | Gross Pathology: Enlarged Spleen [2]: 0 | Gross Pathology: Pale Iliac Lymph Node [2]: 2 | Gross Pathology: Pale Liver [2]: 3 | Gross Pathology: Pale Ovaries [2]: 0 | Gross Pathology: Pale Pancreatic Lymph Node [2]: 1 | Liver Focal Necrosis [2]: 0 | Liver Focal Necrosis, Mild [2]: 0 | Liver Focal Necrosis, Minimal [2]: 0 | Liver Histiocytic Infiltration [2]: 5 | Liver Histiocytic Infiltration, Mild [2]: 2 | Liver Histiocytic Infiltration, Minimal [2]: 3 | Liver Histiocytic Infiltration, Moderate [2]: 0 | Liver Multifocal Necrosis [2]: 0 | Liver Multifocal Necrosis, Mild [2]: 0 | Liver Multifocal Necrosis, Moderate [2]: 0 | Liver Vacuolation [2]: 5 | Liver Vacuolation, Mild [2]: 2 | Liver Vacuolation, Minimal [2]: 2 | Liver Vacuolation, Moderate [2]: 1 | Lymph Node, Man. Histiocytic Infiltration [2]: 2 | Lymph Node, Man. Histiocytic Infiltration, Mild [2]: 0 | Lymph Node, Man. Histiocytic Infiltration, Minimal [2]: 2 | Lymph Node, Man. Histiocytic Infiltration, Moderate [2]: 0 | Lymph Node, Mes. Histiocytic Infiltration [2]: 4 | Lymph Node, Mes. Histiocytic Infiltration, Mild [2]: 0 | Lymph Node, Mes. Histiocytic Infiltration, Minimal [2]: 4 | Ovary Histiocytic Infiltration [2]: 4 | Ovary Histiocytic Infiltration, Mild [2]: 0 | Ovary Histiocytic Infiltration, Minimal [2]: 4 | Ovary Histiocytic Infiltration, Moderate [2]: 0 | Spleen Histiocytic Infiltration [2]: 3 | Spleen Histiocytic Infiltration, Marked [2]: 0 | Spleen Histiocytic Infiltration, Mild [2]: 1 | Spleen Histiocytic Infiltration, Minimal [2]: 2 | Spleen Histiocytic Infiltration, Moderate [2]: 0 | Died or Sacrificed Moribund (62.5 mg/kg M): 0 | ALT (62.5 mg/kg M, end of dosing): 22 IU/L | APPT (62.5 mg/kg M, end of dosing): 17.6 s | AST (62.5 mg/kg M, end of dosing): 74 IU/L | Body Weight, percent difference from controls (62.5 mg/kg M, end of dosing): −0.5% | Eosinophils (62.5 mg/kg M, end of dosing): 0.09* 10^3/cmm | Erythrocytes (62.5 mg/kg M, end of dosing): 8.14* 10^6/cmm | Food Consumption, percent difference from controls (62.5 mg/kg M, end of dosing): +2.5% | GGT (62.5 mg/kg M, end of dosing): 0.00 IU/L | Hematocrit (62.5 mg/kg M, end of dosing): 44.3% | Hemoglobin (62.5 mg/kg M, end of dosing): 15.1* g/dL | Leukocytes (62.5 mg/kg M, end of dosing): 8.56* 10^3/cmm | Liver weight (absolute), percent difference from controls (62.5 mg/kg M, end of dosing): −5.5% | Lymphocytes (62.5 mg/kg M, end of dosing): 7.02* 10^3/cmm | Neutrophils (62.5 mg/kg M, end of dosing): 1.06 10^3/cmm | Spleen weight (absolute), percent difference from controls (62.5 mg/kg M, end of dosing): −57.3* % | Bone Marrow, Sternum Hyperplasia [3]: 0 | Bone Marrow, Sternum Hyperplasia, Mild [3]: 0 | Bone Marrow, Sternum Hyperplasia, Minimal [3]: 0 | Gross Pathology: Enlarged Pancreatic Lymph Nodes [3]: 0 | Gross Pathology: Pale Adrenal [3]: 0 | Gross Pathology: Pale Liver [3]: 9 | Gross Pathology: Pale Lymph Nodes [3]: 0 | Gross Pathology: Pale Pituitary [3]: 0 | Gross Pathology: Pale SQ Skin [3]: 1 | Liver Focal Necrosis [3]: 0 | Liver Focal Necrosis, Minimal [3]: 0 | Liver Histiocytic Infiltration [3]: 2 | Liver Histiocytic Infiltration, Mild [3]: 1 | Liver Histiocytic Infiltration, Minimal [3]: 1 | Liver Histiocytic Infiltration, Moderate [3]: 0 | Liver Vacuolation [3]: 2 | Liver Vacuolation, Mild [3]: 0 | Liver Vacuolation, Minimal [3]: 2 | Lymph Node, Man. Histiocytic Infiltration [3]: 6 | Lymph Node, Man. Histiocytic Infiltration, Mild [3]: 1 | Lymph Node, Man. Histiocytic Infiltration, Minimal [3]: 4 | Lymph Node, Man. Histiocytic Infiltration, Moderate [3]: 1 | Lymph Node, Mes. Histiocytic Infiltration [3]: 9 | Lymph Node, Mes. Histiocytic Infiltration, Mild [3]: 4 | Lymph Node, Mes. Histiocytic Infiltration, Minimal [3]: 5 | Lymph Node, Mes. Histiocytic Infiltration, Moderate [3]: 0 | Skin, Dermis Histiocytic Infiltration [3]: 0 | Skin, Dermis Histiocytic Infiltration, Marked [3]: 0 | Skin, Dermis Histiocytic Infiltration, Mild [3]: 0 | Skin, Dermis Histiocytic Infiltration, Moderate [3]: 0 | Skin, SQ Histiocytic Infiltration [3]: 0 | Skin, SQ Histiocytic Infiltration, Mild [3]: 0 | Spleen Histiocytic Infiltration [3]: 1 | Spleen Histiocytic Infiltration, Marked [3]: 0
